According to article PMC7162492, “Pharmacological and pharmacokinetic profile of the novel ocular hypotensive prodrug CKLP1 in Dutch-belted pigmented rabbits” (PLoS ONE, 2020):
Values joined by “and” are separate entries in the source; they are usually repeats but may differ in a detail not shown here. Equal values may be shown once. “Also recorded” adds a separate entry of the source.

Tests used:
[1] = parameters: method as in earlier work; conditions: ref Roy Chowdhury U, Viker KB, Stoltz KL, et al. J Med Chem. 2016;59(13):6221-31; cited from earlier work
[2] = test system: IOP in Dutch-belted pigmented rabbits; experiment: IOP measurement by rebound tonometer during 90 days of topical CKLP1; format: in vivo
Source text: (§1) All experiments with animals were pre-approved by the Institutional Animal Care and Use Committee of the Mayo Clinic, Rochester, MN and adhered to the recommendations in the Guide for the Care and use of Laboratory Animals of the National Institutes of Health, and the tenets of the ARVO Statement for the Use of Animals in Vision Research. Female Dutch-belted pigmented rabbits (age 7 months) were obtained from Covance Research Products, Inc. (Denver, PA). Rabbits were housed in pairs and kept in a climate controlled room with 12 h light and dark cycles. Animals had unrestrained access to water and standard rabbit food pellets at all times. Upon receipt, animals were acclimated for at least 5 days before initiation of the experiment. IOP was measured with a handheld rebound tonometer (Icare Tonovet, Colonial Medical Supply, Franconia, NH, USA) in conscious and minimally restrained, non-anesthetized rabbits as previously described. Briefly, daily IOP was calculated from the average of 3 independent IOP measurements at 3 different time points each day. These time points corresponded to 1 h, 4 h and 23 h post treatment on any given day. Rabbits that needed to be handled for IOP were subjected to sham IOP measurements for two days prior to initiation of experiment. Rabbits (n = 3) were injected intravenously through the right ear vein with CKLP1 as a bolus dose equal to 0.25 mg/kg body weight. Additional rabbits were treated topically through instillation of 50 μl eye drops of a 10 mM (4.1 mg/ml) solution of CKLP1 in sterile PBS. Topical CKLP1 application was continued once daily (9:30 am every day) for either 1 (n = 3), 4 (n = 3), 8 (n = 3) or 90 days (n = 6). In the 1, 4 and 8 day groups, drug was added to both eyes, whereas in the 90 day group, CKLP1 was added to one eye while the contralateral eye received vehicle (PBS, Corning, Manassas, VA).
IOP values are represented as mean ± standard deviation. IOP differences between treated and control eyes were compared using two-tailed paired Student’s t-test. Pharmacokinetic parameters (Cmax, Tmax, AUC and concentration of CKLP1 and levcromakalim) across various days following treatment were compared with one-way ANOVA. Criterion for statistically significant difference of means was set at p<0.05. Statistical analyses were performed using Microsoft Excel and its data analysis add-on feature.

[3] = Plasma pharmacokinetics after single intravenous injection of CKLP1 (LC-MS/MS); format: in vivo, Dutch-belted pigmented rabbits; conditions: rabbit, intravenous 0.25 mg/kg CKLP1
Experimental: LC-MS/MS analysis of all fluids were performed using a Waters (Milford, MA) Acquity UPLC BEH C18 column (1.7 μm, 2.1 x 50 mm) with an Agilent EC-C18 pre-column (2.7 μm, 2.1 x 5 mm) and a gradient elution program containing ultra-pure water and acetonitrile with 2.5 mM ammonium formate, at a flow rate of 0.2 ml/min. Flavopiridol was used as an internal standard. The column and auto-sampler temperatures were maintained at 40°C and 4°C, respectively. Source parameters were capillary voltage, 2.6 kV; source temperature, 150°C; desolvation temperature, 500°C; cone gas flow, 150 L/h; and desolvation gas flow, 800 L/h. The cone voltages and collision energies for CKLP1, levcromakalim and flavopiridol were determined by MassLynx-Intellistart software, v4.1, and were 32, 34 and 72 V (cone) and 20, 14 and 30 eV (collision), respectively. The retention times were 4.5 minutes for CKLP1, 5.9 minutes for levcromakalim and 5.7 minutes for flavopiridol.
To validate accurate measurement of CKLP1 and levcromakalim, known concentrations of CKLP1 (5, 10, 25, 50, 100, 250, 500 ng/ml) and levcromakalim (1, 5, 10, 25, 50, 100, 250 ng/ml) were added to human plasma (obtained from the Mayo Clinic Division of Transfusion Medicine under an Institutional Review Board approved protocol) to make calibration curves. Quality control was determined for each run by using known quantities of CKLP1 and levcromakalim to verify that the instrument recorded values consistent with the established standard curve. The effect of carryover was evaluated by injecting blank samples before and after running the standard samples for calibration curves. Unknown samples with signal to noise ratios >10 were recorded as acceptable concentrations. Samples with signal to noise ratios <10 were reported as not detectable (ND). Controls consisted of a double blank (without analytes and internal standard) and a single blank (only internal standard). The linearity of the calibration curves was determined by plotting the ratios of analytes to internal standard peak areas. The curve was fitted by least squares regression with a 1/x weighting for both CKLP1 and levcromakalim. Data was collected from 3–6.4 minutes for CKLP1 and 4–8 minutes for both levcromakalim and flavopiridol. Waters MassLynx Intellistart software v4.1 was used for analysis.
as §1, with “Topical CKLP1 application was continued once daily (9:30 am every day) for either 1 (n = 3), 4 (n = 3), 8 (n = 3) or 90 days (n = 6). In the 1, 4 and 8 day groups, drug was added to both eyes, whereas in the 90 day group, CKLP1 was added to one eye while the contralateral eye received vehicle (PBS, Corning, Manassas, VA).” left out

[4] = test system: Dutch-belted pigmented rabbits; experiment: Histology of tissues at necropsy after 90 days of topical CKLP1; format: in vivo; conditions: topical CKLP1 once daily, masked veterinary pathologist
Source text: All experiments with animals were pre-approved by the Institutional Animal Care and Use Committee of the Mayo Clinic, Rochester, MN and adhered to the recommendations in the Guide for the Care and use of Laboratory Animals of the National Institutes of Health, and the tenets of the ARVO Statement for the Use of Animals in Vision Research. Female Dutch-belted pigmented rabbits (age 7 months) were obtained from Covance Research Products, Inc. (Denver, PA). Rabbits were housed in pairs and kept in a climate controlled room with 12 h light and dark cycles. Animals had unrestrained access to water and standard rabbit food pellets at all times. Upon receipt, animals were acclimated for at least 5 days before initiation of the experiment. IOP was measured with a handheld rebound tonometer (Icare Tonovet, Colonial Medical Supply, Franconia, NH, USA) in conscious and minimally restrained, non-anesthetized rabbits as previously described. Briefly, daily IOP was calculated from the average of 3 independent IOP measurements at 3 different time points each day. […]
To assess cell and tissue morphology following CKLP1 treatment for 90 days, necropsy was performed on all 6 treated rabbits. Representative hematoxylin and eosin stained sections from 34 tissues were isolated, processed and assessed in a masked manner by a certified veterinary pathologist. […]

[5] = 10 mM CKLP1 eye drop daily, 90 days

For “sodium [CKLP1, sodium [(3S,4R)-6-cyano-2,2-dimethyl-4-(2-oxopyrrolidin-1-yl)-chroman-3-yl phosphate]]”, the Solubility in water [1] is listed as “water soluble”, the “IOP drop in the treated eye compared to baseline” value [2, 5] is listed as 11.4 ± 4.7% and 11.4% and the “IOP reduction in treated eye compared to contralateral vehicle treated eye” value [2, 5] is listed as 14.1 ± 1.0%. The “IOP absolute change in treated eyes compared to control eyes” value ([2]; 10 mM CKLP1 eye drop daily, 90 days, n = 6) was 2.4 ± 0.4 mmHg, the “IOP in the treated eye” value ([2]; 10 mM CKLP1 eye drop daily, 90 days, baseline 16.5 ± 0.7) was 14.6 ± 1.0 mm Hg and the “Average IOP in treated eyes post treatment (washout group)” value ([2]; after cessation of 90-day treatment, n = 3, baseline 16.5 ± 0.7) was 15.6 ± 0.6 mm Hg. It also gave an AUClast [3] of 2164.0 ± 482.5 ng·h/mL, a Clast [3] of 34.9 ± 42.4 ng/mL and a Cmax [3] of 1968.5 ± 831.0 ng/mL. The Tlast [3] was 5.6 ± 1.8 h, the Tmax [3] was 19.8 ± 23.0 min and the half-life [3] was 61.8 ± 55.2 min. The “Histological changes in tissues” value [4] was “No observable histological changes; also recorded: did not show any observable histological changes; also recorded: No observable differences in histology”.
